3 molecules from PMC4669759 (Cell Death & Disease, 2015) can be followed below.

In one assay the test system is RS4;11 cell line. The experiment in a line: Cell viability, RS4;11 cells. The note with it: RS4;11, 48 h. It counts as cell-based. How it is done:
(§1) Figure 4 Indole-2-carboxylic acids induce the hallmarks of apoptosis in MCL-1-dependent cancer cell line H929. (a) Digitonin-permeabilized H929 cells were treated with 10 μM BH3 peptides for 4 h, and intact H929 cells were incubated with increasing concentrations (0.1–10 μM) of A-1208746 for 4 h before assessing the levels of cytochrome c released into the cytosol. (b) H929 and RS4;11 cells were incubated with increasing concentrations of MCL-1 inhibitors or the BCL-2-selective inhibitor ABT-199 (venetoclax) for 48 h before determining cell viability. Cell killing IC50s are plotted with each value representing the mean of three separate experiments. Error bars represent the S.E.M. (c) H929 cells were incubated with increasing concentrations of MCL-1 inhibitors in the presence or absence of the pan-caspase inhibitor QVD (100 μM) for 4 h before assessing caspase-3/-7 activation, mitochondrial membrane polarization, and the exposure of phosphatidylserine. […]
(§2) Adherent cell lines were seeded at 50 000 cells per well in 96-well plates and treated for 48 h with compounds diluted in half-log steps starting at 30 μM and ending at 0.001 μM. […] Effects on proliferation and viability were determined using CellTiter-Glo reagent from Promega (Madison, WI, USA) according to the manufacturer's instructions. IC50 values were determined by non-linear regression analysis of the concentration response data.

In another assay the test system is Bak-/- Bax-/- MEFs. The experiment in a line: Cell viability, Bak-/- Bax-/- murine embryonic fibroblasts. It counts as cell-based. The note with it: 48 h. How it is done: Supplementary Figure 4. […] Murine embryonic fibroblasts (MEFs) lacking Bak and Bax were treated with increasing concentrations of A-1155905, A-1208746, A-1210477, staurosporine or bortezomib for 48 h before assessing cell viability. Data represent the mean of triplicate experiments and error bars indicate the standard error of the mean.

Assay [1] concerns H929 cells. The experiment in a line: Cytochrome c release in H929 cells. The format is cell-based, human. The conditions noted are these: intact H929 cells, within 4 h. How it is done: as §1, with “experiments.” for “experiments. Error bars represent the S.E.M. (c) H929 cells were incubated with increasing concentrations of MCL-1 inhibitors in the presence or absence of the pan-caspase inhibitor QVD (100 μM) for 4 h before assessing caspase-3/-7 activation, mitochondrial membrane polarization, and the exposure of phosphatidylserine.”
(§3) H929 cells were cultured in RPMI 1640 (Invitrogen Corp., Grand Island, NY, USA) supplemented with 10% fetal bovine serum (Invitrogen), 1% sodium pyruvate, 25 mM HEPES, 4.5 g/l glucose, and 1% penicillin/streptomycin (Sigma) and maintained in a humidified chamber at 37 °C containing 5% CO2. […] Following treatment, the hallmarks of apoptosis (activation of caspase-3/-7, mitochondrial membrane depolarization, and phosphatidylserine externalization) were measured using the IntelliCyt (Albuquerque, NM, USA) MultiCyt 4-Plex Apoptosis Screening Kit according to the manufacturer's instructions and read by flow cytometry using a HTFC screening system (IntelliCyt). […] Data were expressed as the percentage of singlet cells. […]

Assay [2] concerns H929 cells. The assay can be described thus: Hallmarks of apoptosis in H929 cells (caspase-3/-7, mitochondrial membrane depolarization, phosphatidylserine). It counts as cell-based, human. The note with it: H929, 4 h. How it is done: as §1, with “experiments.” for “experiments. Error bars represent the S.E.M. (c) H929 cells were incubated with increasing concentrations of MCL-1 inhibitors in the presence or absence of the pan-caspase inhibitor QVD (100 μM) for 4 h before assessing caspase-3/-7 activation, mitochondrial membrane polarization, and the exposure of phosphatidylserine.”
as §3

Assay [3] has as its system H929 cells. The experiment in a line: Cell viability, H929 cells. The format is cell-based, human. The conditions noted are these: H929, 48 h. How it is done: as §1, §2
Assay [4] relates to MCL-1(3B)–BIMS(2A)ΔC complexes. The experiment in a line: Live cell redistribution assay, eGFP-MCL-1(3B) and mCherry-BIMS(2A)ΔC, T-REx-293 cells. The note with it: T-REx-293 cells expressing MCL-1(3B). The format is cell-based. An excerpt: To further rule out potential artifacts associated with lysate detergents that can influence interactions between BCL-2 family proteins,[47] we employed a recently described real-time imaging method to assess the effects on BCL-2 family complexes in live cells.[48] Briefly, interacting pairs of BCL-2 family proteins are expressed as fluorescent fusion proteins at stoichiometric levels from a bicistronic expression module integrated into a single site of the genome in T-REx-293 cells. Under basal conditions, both proteins localize primarily to the mitochondria, where the anti-apoptotic proteins (enhanced green fluorescent protein (eGFP)-BCL-2, eGFP-BCL-XL, or eGFP-MCL-1(3B)) sequester their pro-apoptotic counterparts (mCherry-BAD or mCherry-BIMS(2A)ΔC, the latter being a specific binder of MCL-1[48], [49]). Disruption of these complexes can be tracked by measuring the amount of mCherry-labeled BH3-only protein localized specifically to the mitochondria. […]
(§4) Figure 3 A-1210477 inhibits MCL-1-BIM complexes in live cells. […] The decrease in amount of mCherry-BH3 protein localized to the mitochondria was quantified as a function of time as described in the Materials and Methods, normalized to DMSO control, and fitted to a single exponential decay. Each data point represents the mean change in intensity calculated from 10 fields of view, with error bars indicating the S.E.M. (b) T-REx-293 cells stably expressing eGFP-MCL-1(3B) and mCherry-BIMS(2A)ΔC were treated with 50 μM ABT-737 or increasing concentrations (1–25 μM) A-1210477 for 100 min. The decrease in amount of mCherry-BIMS(2A)ΔC localized to the mitochondria was quantified as in panel (a). (c) Representative fluorescence microscopic images of T-REx-293 cells stably expressing eGFP-BCL-2 family and interacting mCherry-BH3-only proteins before and after 300 min of treatment with 10 μM A-1210477 or (d) ABT-737. […]
Experiments were carried out as detailed previously.[48] […] Therefore, the entire cell was identified with a single intensity threshold applied to the eGFP fluorescence, excluding areas identified as mitochondria. […]

The target in the next assay is T1, BCL-2–BAD complexes (Homo sapiens, UniProt P10415).
T1 construct: expressed in transfected cells; host or cells: T-REx-293, bicistronic expression module integrated at a single genomic site
The assay can be described thus: Live cell redistribution assay, eGFP-BCL-2 and mCherry-BAD, T-REx-293 cells. The conditions noted are these: 10 μM, 300 min. It counts as cell-based.
From the text: (§5) To further rule out potential artifacts associated with lysate detergents that can influence interactions between BCL-2 family proteins,[47] we employed a recently described real-time imaging method to assess the effects on BCL-2 family complexes in live cells.[48] Briefly, interacting pairs of BCL-2 family proteins are expressed as fluorescent fusion proteins at stoichiometric levels from a bicistronic expression module integrated into a single site of the genome in T-REx-293 cells. […]
as §4

A further assay has as its target T2, BCL-XL–BAD complexes (Homo sapiens, UniProt Q07817).
T2 construct: expressed in transfected cells; host or cells: T-REx-293, bicistronic expression module integrated at a single genomic site
The experiment in a line: Live cell redistribution assay, eGFP-BCL-XL and mCherry-BAD, T-REx-293 cells. It counts as cell-based. The note with it: 10 μM, 300 min.
From the text: as §5, §4

In a further assay the test system is EJ-1 cells. The assay can be described thus: Navitoclax / A-1210477 combination cell viability, EJ-1 cells. The conditions noted are these: EJ-1, up to 3–5 μM, 48 h. The format is cell-based. How it is done:
(§6) Figure 6 A-1210477 synergizes with navitoclax to kill hematological and solid tumor cell lines. BxPC-3, EJ-1, H23, and OPM-2 cells were treated with increasing concentrations of navitoclax in the presence or absence of increasing concentrations of A-1210477 for 48 h before assessing cell viability. All data points represent the means of triplicate experiments, with error bars indicating the S.E.M. TEXT PRINTED IN THE PICTURE: A-1210477 + navitoclax: Bliss sum (BxPC-3): 716; Bliss sum (EJ-1): 464; Bliss sum (H23): 76; Bliss sum (OPM-2): 946 DOUBTS OF THE COPYIST ABOUT THIS PICTURE: The Bliss sums apply to the combination of A-1210477 and navitoclax. The picture prints the two names separately (legend heading and axis title), not as one joined label.
(§7) Adherent cell lines were seeded at 50 000 cells per well in 96-well plates and treated for 48 h with compounds diluted in half-log steps starting at 30 μM and ending at 0.001 μM. Multiple myeloma cell lines were seeded at 15 000–20 000 cells per well and treated similarly. Effects on proliferation and viability were determined using CellTiter-Glo reagent from Promega (Madison, WI, USA) according to the manufacturer's instructions. IC50 values were determined by non-linear regression analysis of the concentration response data.

In another assay the test system is OPM-2 cells. The assay can be described thus: Navitoclax / A-1210477 combination cell viability, OPM-2 cells. It counts as cell-based. The conditions noted are these: OPM-2, up to 3–5 μM, 48 h. How it is done: as §6, §7
Another assay has as its system BxPC-3 cells. The experiment in a line: Navitoclax / A-1210477 combination cell viability, BxPC-3 cells. The note with it: BxPC-3, up to 3–5 μM, 48 h. It counts as cell-based. How it is done: as §6, §7
The subject of a further assay is H23 cells. The assay can be described thus: Navitoclax / A-1210477 combination cell viability, H23 cells. The format is cell-based, human. The note with it: H23, up to 3–5 μM, 48 h. How it is done:
as §6, §7

SMILES strings stand for the structures.

T2 sequence (Q07817 whole entry, one chain of several): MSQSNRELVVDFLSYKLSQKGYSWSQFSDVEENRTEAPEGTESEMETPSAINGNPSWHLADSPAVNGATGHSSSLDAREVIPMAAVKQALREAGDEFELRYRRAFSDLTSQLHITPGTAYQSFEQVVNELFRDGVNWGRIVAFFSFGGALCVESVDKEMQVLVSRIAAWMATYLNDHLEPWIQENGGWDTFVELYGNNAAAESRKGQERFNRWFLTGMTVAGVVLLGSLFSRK
T1 sequence (P10415 whole entry, one chain of several): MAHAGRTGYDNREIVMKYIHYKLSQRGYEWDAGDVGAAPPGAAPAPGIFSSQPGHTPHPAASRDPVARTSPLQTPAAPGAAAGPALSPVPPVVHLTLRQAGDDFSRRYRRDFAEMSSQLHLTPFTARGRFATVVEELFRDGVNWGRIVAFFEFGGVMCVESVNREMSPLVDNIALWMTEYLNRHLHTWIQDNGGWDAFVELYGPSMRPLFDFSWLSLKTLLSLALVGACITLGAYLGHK

As to `Cc1nn(C)c(COc2ccc(N3CCN(S(C)(=O)=O)CC3)cc2)c1-c1cccc2c(CCCOc3cccc4ccccc34)c(C(=O)O)n(CCN3CCOCC3)c12` [A-1208746], the “effect on cell viability” value in the assay on RS4;11 cell line was “no effect”. The “killing of Bak-/- Bax-/- MEFs” value in the assay with Bak-/- Bax-/- MEFs was “do not Kill”. Besides, the “lowest concentration at which cytochrome c was observed in cytosolic fractions” value in the assay on H929 cells [1] came to 3 µM. Also, the “induction of hallmarks of apoptosis (mitochondrial membrane depolarization, caspase-3/-7 activation, phosphatidylserine externalization)” value in the assay on H929 cells [2] is “induced the hallmarks of apoptosis”. The “cell killing IC50” value with H929 cells [3] is on record as “low-μM range”.

In the case of `CN(C)CC[C@H](CSc1ccccc1)Nc1ccc(S(=O)(=O)NC(=O)c2ccc(N3CCN(Cc4ccccc4-c4ccc(Cl)cc4)CC3)cc2)cc1[N+](=O)[O-]` [ABT-737, reference compound], the “redistribution of mCherry-BIMS(2A)ΔC from mitochondria” value in assay [4] is recorded as “no effect”. Besides, at BCL-2–BAD complexes, the “redistribution of mCherry-BAD associated with BCL-2” value was “induced the redistribution of mCherry-BAD”. For the same molecule, the “redistribution of mCherry-BAD associated with BCL-XL” value on BCL-XL–BAD complexes is listed as “induced the redistribution of mCherry-BAD”.

On to `CC1(C)CCC(c2ccc(Cl)cc2)=C(CN2CCN(c3ccc(C(=O)NS(=O)(=O)c4ccc(N[C@H](CCN5CCOCC5)CSc5ccccc5)c(S(=O)(=O)C(F)(F)F)c4)cc3)CC2)C1` [navitoclax, reference compound], for which the “single agent effect on cell viability” value in the assay with EJ-1 cells, in the assay with OPM-2 cells, in the assay with BxPC-3 cells and with H23 cells was “little or no effect” each time.
